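Five compound concentrations were applied to cells in 96-well plates for 48 hours; endpoints were derived by simple linear interpolation of the resulting dose-response curve. Here, GI50 denotes the concentration required for 50% inhibition of growth.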 Activity calls are given as the source filed them. Rule as the data show it: active = GI50 up to about 1.1 µM and inactive = higher.
Legend:
Experiment in all cases: NCI tumour cell line growth inhibition, 48 h
[1] = test system: KM-20L2
[2] = test system: U-251
[3] = test system: NCI-H460
[4] = test system: NCI-H522
[5] = test system: DMS-273
[6] = test system: HOP-18
[7] = test system: SF-268
[8] = test system: SR
[9] = test system: HOP-62
[10] = test system: HT-29
[11] = test system: XF498
[12] = test system: NCI/ADR-RES
[13] = test system: A498
[14] = test system: M19-MEL
[15] = test system: 786-0

SMILES | GI50 [1] | GI50 [2] | GI50 [3] | GI50 [4] | GI50 [5] | GI50 [6] | GI50 [7] | GI50 [8] | GI50 [9] | GI50 [10] | GI50 [11] | GI50 [12] | GI50 [13] | GI50 [14] | GI50 [15]
CCOC(=O)C1CCn2c(nc3c(=O)n(C)c(=O)n(C)c32)S1 (configuration not stated) | > 100 µM (inactive) | > 100 µM (inactive) | > 100 µM (inactive) | > 100 µM (inactive) | > 100 µM (inactive) | > 100 µM (inactive) | > 100 µM (inactive) | > 100 µM (inactive) | > 100 µM (inactive) | > 100 µM (inactive) |  |  |  |  | 
CNC(=O)C(C)C1CCC2(C)C=CC(=O)C(C)=C2C1O (configuration not stated) | > 100 µM (inactive) | > 44.8 µM (inactive) | > 100 µM (inactive) | > 100 µM (inactive) | > 37.9 µM (inactive) |  | > 100 µM (inactive) |  | > 100 µM (inactive) | > 100 µM (inactive) | > 100 µM (inactive) | > 47 µM (inactive) | > 100 µM (inactive) | > 100 µM (inactive) | 
COC(=O)N1C=Cc2c(c(C)c3c([nH]c4ccccc43)c2C)C1C (configuration not stated) | 12.2 µM (inactive) | 16 µM (inactive) | 22.5 µM (inactive) |  | 18 µM (inactive) |  | 18.2 µM (inactive) |  | 18.2 µM (inactive) | 11.3 µM (inactive) | 17.7 µM (inactive) |  | 14.1 µM (inactive) | 20.8 µM (inactive) | 13.2 µM (inactive)
NC(CCCCNCc1ccccc1)C(=O)O (configuration not stated) | > 100 µM (inactive) | > 100 µM (inactive) | > 100 µM (inactive) | > 100 µM (inactive) | > 100 µM (inactive) | > 100 µM (inactive) | > 100 µM (inactive) |  | > 100 µM (inactive) | > 100 µM (inactive) |  |  | > 100 µM (inactive) | > 100 µM (inactive) | > 100 µM (inactive)
CN(C)CCNC(=O)c1cccc2c1nc(-c1cccnc1)c1ccccc12 |  | 3.75 µM (inactive) | 0.303 µM (active) |  | 3.02 µM (inactive) | 21.6 µM (inactive) | 6.05 µM (inactive) |  | 6.24 µM (inactive) | 3.76 µM (inactive) |  |  | 1.61 µM (inactive) | 5 µM (inactive) | 5.04 µM (inactive)
CCCCCCCCCCCC(=O)C1=C(O)CCC(O)C1=O (configuration not stated) | 11.7 µM (inactive) | 14.6 µM (inactive) | 15.7 µM (inactive) | 12.1 µM (inactive) | 7.29 µM (inactive) | 25.5 µM (inactive) | 27.2 µM (inactive) |  | 15.2 µM (inactive) | 15.6 µM (inactive) | 10.7 µM (inactive) |  | 16.2 µM (inactive) | 19.5 µM (inactive) | 19.4 µM (inactive)
O=C(O)CCCCCCC[C@H]1S[C@H]1CCCCCCO |  | > 100 µM (inactive) |  |  |  | > 100 µM (inactive) | > 100 µM (inactive) | > 100 µM (inactive) | > 100 µM (inactive) | > 100 µM (inactive) | > 100 µM (inactive) |  |  | > 100 µM (inactive) | > 100 µM (inactive)
O=C(CC1(O)C(=O)Nc2c(Cl)cc(Cl)cc21)c1ccco1 (configuration not stated) | 48.3 µM (inactive) | > 100 µM (inactive) | 65.6 µM (inactive) | 62.5 µM (inactive) | 38.8 µM (inactive) | 55.7 µM (inactive) | 50 µM (inactive) |  | 60.1 µM (inactive) | 52.7 µM (inactive) | 25.1 µM (inactive) |  |  |  | 23.7 µM (inactive)
CC(=O)C1C(=O)C(=O)N(c2ccc(Cl)cc2C)C1=O (configuration not stated) | > 100 µM (inactive) | > 100 µM (inactive) | > 100 µM (inactive) | > 100 µM (inactive) |  | > 100 µM (inactive) | > 100 µM (inactive) | > 100 µM (inactive) | > 100 µM (inactive) | > 100 µM (inactive) |  |  | > 100 µM (inactive) | > 100 µM (inactive) | > 100 µM (inactive)
COc1ccc(/C=C(\C2=NC(=O)CS2)c2nc3ccccc3[nH]2)cc1 | 49 µM (inactive) | 42.3 µM (inactive) | 38.9 µM (inactive) | 16.5 µM (inactive) | > 100 µM (inactive) |  | > 100 µM (inactive) | > 100 µM (inactive) | 32.1 µM (inactive) | > 100 µM (inactive) | 14.5 µM (inactive) |  | 75.9 µM (inactive) | 43.5 µM (inactive) | 
O=C1NC2CCCCCC2C12CCCCC2 (configuration not stated) | > 100 µM (inactive) | > 100 µM (inactive) | > 100 µM (inactive) |  |  |  | > 100 µM (inactive) | > 100 µM (inactive) | > 100 µM (inactive) | > 100 µM (inactive) | > 100 µM (inactive) |  | > 100 µM (inactive) | > 100 µM (inactive) | 
O=C(NNc1ccc([N+](=O)[O-])cc1)C1OC(CO)C(O)C1O (configuration not stated) | > 100 µM (inactive) | > 100 µM (inactive) | > 100 µM (inactive) |  | > 100 µM (inactive) | > 100 µM (inactive) | > 100 µM (inactive) |  | > 100 µM (inactive) | 59.8 µM (inactive) | > 100 µM (inactive) |  | > 100 µM (inactive) | > 100 µM (inactive) | 26.4 µM (inactive)
COc1ccc2c(c1)[n+]([O-])c(-c1cccc(Cl)c1)c(N)[n+]2[O-] | 37.8 µM (inactive) | 37.3 µM (inactive) | 27.4 µM (inactive) | 16.5 µM (inactive) | 33.6 µM (inactive) | > 100 µM (inactive) | 33.8 µM (inactive) | 43.6 µM (inactive) | > 100 µM (inactive) | 41.5 µM (inactive) | > 100 µM (inactive) |  | > 100 µM (inactive) | 30.3 µM (inactive) | 95.1 µM (inactive)
N#C/C(=C/c1ccco1)C(=O)c1ccccc1 |  | > 100 µM (inactive) | > 100 µM (inactive) | > 100 µM (inactive) |  | > 100 µM (inactive) | > 100 µM (inactive) | > 100 µM (inactive) |  | > 100 µM (inactive) | > 100 µM (inactive) |  | > 100 µM (inactive) | > 100 µM (inactive) | > 100 µM (inactive)
COc1cc(C2C(C(=O)Nc3ccccc3C)=C(C)NC(C)=C2C(=O)Nc2ccccc2C)ccc1O | > 100 µM (inactive) | > 100 µM (inactive) | > 100 µM (inactive) | > 100 µM (inactive) | > 100 µM (inactive) | > 100 µM (inactive) |  |  | > 100 µM (inactive) | > 100 µM (inactive) | 87.5 µM (inactive) |  | > 100 µM (inactive) | > 100 µM (inactive) | > 100 µM (inactive)
Cc1ccc(S(=O)(=O)N/N=C(/c2nc3ccc([N+](=O)[O-])cc3nc2O)C(O)c2ccc(C(O)/C(=N\NS(=O)(=O)c3ccc(C)cc3)c3nc4ccc([N+](=O)[O-])cc4nc3O)cc2)cc1 (configuration not stated) | 55.8 µM (inactive) | 67.6 µM (inactive) | 35.6 µM (inactive) | 3.15 µM (inactive) | 38.4 µM (inactive) |  |  |  | 43.1 µM (inactive) | 31 µM (inactive) | > 100 µM (inactive) |  | 59 µM (inactive) |  | > 100 µM (inactive)
COc1ccc(/C(Cl)=C(\C=O)c2ccc(OC)c(OC)c2)cc1 | > 100 µM (inactive) | 29.8 µM (inactive) | 35.2 µM (inactive) | 9.35 µM (inactive) |  | 49.9 µM (inactive) | 30.1 µM (inactive) |  |  | 29.3 µM (inactive) | 22.2 µM (inactive) |  | 35.9 µM (inactive) | > 100 µM (inactive) | 
COc1ccc(Br)c(CN2CCc3ccccc32)c1OS(=O)(=O)c1ccc(C)cc1 |  |  |  | 4.39 µM (inactive) |  | > 100 µM (inactive) | 23.7 µM (inactive) | 43.7 µM (inactive) |  |  | 12.4 µM (inactive) |  |  | 4.03 µM (inactive) | 23.7 µM (inactive)
CC1C(/C=C/c2ccoc2)ON2CCCC12 (configuration not stated) | > 100 µM (inactive) | > 100 µM (inactive) | > 100 µM (inactive) | > 100 µM (inactive) | > 100 µM (inactive) | > 100 µM (inactive) | > 100 µM (inactive) |  | > 10 µM (inactive) | > 100 µM (inactive) |  |  |  | > 100 µM (inactive) | > 100 µM (inactive)
CN1c2ccccc2N(C(=O)c2ccc([N+](=O)[O-])cc2)C(CC(=O)O)c2cccn21 (configuration not stated) | > 100 µM (inactive) |  | > 100 µM (inactive) | > 100 µM (inactive) | > 100 µM (inactive) |  | > 100 µM (inactive) |  | > 100 µM (inactive) | > 100 µM (inactive) | > 100 µM (inactive) |  | > 100 µM (inactive) | > 100 µM (inactive) | > 100 µM (inactive)
COC(C(O)c1ccc2c(c1)OCO2)P(=O)(c1ccccc1)c1ccccc1 (configuration not stated) |  | > 100 µM (inactive) | > 100 µM (inactive) | 85.3 µM (inactive) | > 100 µM (inactive) |  | > 100 µM (inactive) | > 100 µM (inactive) | > 100 µM (inactive) | > 100 µM (inactive) | > 100 µM (inactive) |  | 75.2 µM (inactive) | > 100 µM (inactive) | > 100 µM (inactive)
COC(=O)C1=C(O)c2cc3c(cc2[C@H](c2cc(OC)c(OC)c(OC)c2)C1C(=O)OC)OCO3 (some centres not stated) | > 100 µM (inactive) | 82.8 µM (inactive) | 61 µM (inactive) |  | 65.2 µM (inactive) | 29.2 µM (inactive) | 50.8 µM (inactive) | 86.5 µM (inactive) | > 100 µM (inactive) | 95.5 µM (inactive) | 25.1 µM (inactive) |  | 76 µM (inactive) | 39.5 µM (inactive) | 42.7 µM (inactive)
COc1cc(C2c3cc4c(cc3[C@@H](Oc3ccc(F)cc3)C3COC(=O)[C@H]23)OCO4)cc(OC)c1O (some centres not stated) | 0.286 µM (active) | 0.365 µM (active) | 0.343 µM (active) | 0.217 µM (active) | 0.337 µM (active) | 87.1 µM (inactive) | 0.679 µM (active) |  | 0.267 µM (active) | 0.284 µM (active) |  | 0.22 µM (active) | 0.236 µM (active) | 0.671 µM (active) | 
